The values below come from ChEMBL document CHEMBL1240334, “Molecular basis of cyclin-CDK-CKI regulation by reversible binding of an inositol pyrophosphate” (Nat Chem Biol, 2008).

The structures appear in SMILES notation. The source made the active and inactive calls. The rule behind the calls is not given here.

In assay [1] the target is T1, Pho80/Pho85/Pho81 complex (Saccharomyces cerevisiae S288c) (UniProt P17157+P17442+P20052). Kind of assay: Displacement of 5-Inositol heptakisphosphate from Pho80-Pho85-Pho81-MD complex in Saccharomyces cerevisiae at 0.2 uM 30 mins by electrophoretic mobility shift assay. It is filed as protein-complex assay. (In general: A gel shift assay detects complexes by their altered migration in electrophoresis.)

Assay [2] addresses T1, Pho80/Pho85/Pho81 complex (Saccharomyces cerevisiae S288c). Kind of assay: Binding affinity to Saccharomyces cerevisiae Pho80-Pho85-Pho81-MD complex at 0.2 uM after 30 mins at by electrophoretic mobility shift assay. Conditions: tested as the 32P-labelled form.
Assay [3] concerns the target T2, Pho80/Pho85/Pho81 complex (Saccharomyces cerevisiae S288c, UniProt P17157+P17442+P20052). Kind of assay: Binding affinity to Saccharomyces cerevisiae Pho80-Pho85-Pho81-MD complex from 2uM to 80 uM after 30 mins by electrophoretic mobility shift assay in presence of 6 mM MgCl2. It is filed as protein-complex assay. Conditions: read-out: Kd(app).
Assay [4] deals with T1, Pho80/Pho85/Pho81 complex (Saccharomyces cerevisiae S288c). Kind of assay: Displacement of [32P]-labeled 4-inositol heptakisphosphate from Pho80-Pho85-Pho81-MD complex in Saccharomyces cerevisiae at 400 uM 30 mins at 30 degC by electrophoretic mobility shift assay. It is filed as protein-complex assay. The settings on record: tested as the 32P-labelled form.
For assay [5], the target named is T3, Pho80/Pho85 (Saccharomyces cerevisiae S288c) (UniProt P17157+P20052). As to the kind of experiment: Inhibition of Saccharomyces cerevisiae Pho80-Pho85 at 100 uM in presence of > 10 uM Pho81-MD. The class given is protein-complex assay.
Assay [6] addresses T2, Pho80/Pho85/Pho81 complex. As to the kind of experiment: Inhibition of Saccharomyces cerevisiae Pho80-Pho85-Pho81-MD catalyzed phosphorylation of Pho4-site 6 peptide. The class given is protein-complex assay.
Assay [7] deals with T2, Pho80/Pho85/Pho81 complex. As to the kind of experiment: Competitive inhibition of Saccharomyces cerevisiae Pho80-Pho85-Pho81-MD catalyzed phosphorylation of Pho4 assessed as increase in substrate concentration by line-weaverberk plot assay. It is filed as protein-complex assay.
In assay [8] the target is T1, Pho80/Pho85/Pho81 complex (Saccharomyces cerevisiae S288c). As to the kind of experiment: Displacement of [32P]-labeled 6-inositol heptakisphosphate from Pho80-Pho85-Pho81-MD complex in Saccharomyces cerevisiae at 400 uM at 30 degC by electrophoretic mobility shift assay. The class given is protein-complex assay. Conditions: tested as the 32P-labelled form.
The target is the same in assay [9]. As to the kind of experiment: Binding affinity to Saccharomyces cerevisiae Pho80-Pho85-Pho81-MD complex at 0.2 uM after 30 mins by electrophoretic mobility shift assay in presence of 6mM CaCl2. Conditions: tested as the 32P-labelled form. The class given is protein-complex assay.
Assay [10] deals with T4, Phosphate system positive regulatory protein PHO81 (Saccharomyces cerevisiae S288c, UniProt P17442).
T4 sequence (P17442 whole entry): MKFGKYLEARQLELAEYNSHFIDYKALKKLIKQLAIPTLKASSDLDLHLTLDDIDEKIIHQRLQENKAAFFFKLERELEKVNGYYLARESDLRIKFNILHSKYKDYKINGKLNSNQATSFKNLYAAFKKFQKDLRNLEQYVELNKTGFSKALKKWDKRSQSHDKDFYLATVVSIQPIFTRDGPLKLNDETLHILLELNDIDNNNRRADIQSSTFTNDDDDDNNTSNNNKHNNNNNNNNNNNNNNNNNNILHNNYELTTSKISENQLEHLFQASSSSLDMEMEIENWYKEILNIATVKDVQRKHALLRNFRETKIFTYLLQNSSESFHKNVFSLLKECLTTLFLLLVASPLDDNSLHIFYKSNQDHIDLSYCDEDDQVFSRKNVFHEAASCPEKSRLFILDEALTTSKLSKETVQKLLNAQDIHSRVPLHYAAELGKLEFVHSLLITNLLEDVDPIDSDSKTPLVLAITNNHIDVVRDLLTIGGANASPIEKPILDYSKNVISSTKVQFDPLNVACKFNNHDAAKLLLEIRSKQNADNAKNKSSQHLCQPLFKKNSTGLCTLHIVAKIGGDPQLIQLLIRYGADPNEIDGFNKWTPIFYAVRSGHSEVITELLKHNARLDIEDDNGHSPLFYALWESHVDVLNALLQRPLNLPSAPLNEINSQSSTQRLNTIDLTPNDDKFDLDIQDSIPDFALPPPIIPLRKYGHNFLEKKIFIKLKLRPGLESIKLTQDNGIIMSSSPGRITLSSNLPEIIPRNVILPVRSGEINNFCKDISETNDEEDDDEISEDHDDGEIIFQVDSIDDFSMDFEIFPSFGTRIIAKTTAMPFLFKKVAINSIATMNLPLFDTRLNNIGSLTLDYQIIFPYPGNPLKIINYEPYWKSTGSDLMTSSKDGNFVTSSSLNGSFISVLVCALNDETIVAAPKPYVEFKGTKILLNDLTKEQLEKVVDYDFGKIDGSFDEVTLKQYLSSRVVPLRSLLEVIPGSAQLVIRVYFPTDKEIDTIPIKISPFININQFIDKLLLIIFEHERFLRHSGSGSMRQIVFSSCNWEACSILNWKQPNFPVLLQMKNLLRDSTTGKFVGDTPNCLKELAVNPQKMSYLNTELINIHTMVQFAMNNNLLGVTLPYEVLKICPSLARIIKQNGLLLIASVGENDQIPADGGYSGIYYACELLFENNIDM
As to the kind of experiment: Inhibition of Saccharomyces cerevisiae Pho81-MD-MD dependent Pho80-Pho85 activity after 120 mins.

The target in assay [11] is T1, Pho80/Pho85/Pho81 complex (Saccharomyces cerevisiae S288c). As to the kind of experiment: Inhibition of Saccharomyces cerevisiae Pho80-Pho85-Pho81-MD catalyzed phosphorylation of wild type Pho4 distal-site assessed as increase in substrate concentration. The class given is protein-complex assay.
The target is the same in assay [12]. Kind of assay: Inhibition of Saccharomyces cerevisiae Pho80-Pho85-Pho81-MD catalyzed phosphorylation of Pho4 I22T distal-site mutant assessed as increase in substrate concentration. The class given is protein-complex assay.
For assay [13] the target is unchanged. Kind of assay: Inhibition of Saccharomyces cerevisiae Pho80-Pho85-Pho81-MD catalyzed phosphorylation of Pho4 D175V distal-site mutant. The class given is protein-complex assay.
For assay [14], the target named is T3, Pho80/Pho85 (Saccharomyces cerevisiae S288c). As to the kind of experiment: Binding affinity of Pho81-MD S2-segment to Saccharomyces cerevisiae Pho80-Pho85. It is filed as protein-complex assay.
Assay [15] addresses T1, Pho80/Pho85/Pho81 complex (Saccharomyces cerevisiae S288c). Kind of assay: Inhibition of Saccharomyces cerevisiae Pho80-Pho85-Pho81-MD catalyzed phosphorylation of Pho4 P174L distal-site mutant assessed as increase in substrate concentration. The class given is protein-complex assay.
The target is the same in assay [16]. Kind of assay: Binding affinity to Saccharomyces cerevisiae Pho80-Pho85-Pho81-MD complex at 0.2 uM after 30 mins by electrophoretic mobility shift assay in presence of 6mM MnCl2. The class given is protein-complex assay. Conditions: tested as the 32P-labelled form.
For assay [17] the target is unchanged. As to the kind of experiment: Displacement of myo-inositol hexakisphosphate from Pho80-Pho85-Pho81-MD complex in Saccharomyces cerevisiae at 0.2 uM 30 mins by electrophoretic mobility shift assay. It is filed as protein-complex assay.
Assay [18] deals with T4, Phosphate system positive regulatory protein PHO81. Kind of assay: Inhibition of Saccharomyces cerevisiae Pho81-MD-dependent Pho80-Pho85 activity after 10 mins.
The target in assay [19] is T3, Pho80/Pho85 (Saccharomyces cerevisiae S288c). Kind of assay: Binding affinity of Pho81-MD S1-segment to Saccharomyces cerevisiae Pho80-Pho85. The class given is protein-complex assay.
Assay [20] addresses T1, Pho80/Pho85/Pho81 complex (Saccharomyces cerevisiae S288c). Kind of assay: Displacement of [32P]-labeled 6-inositol heptakisphosphate from Pho80-Pho85-Pho81-MD complex in Saccharomyces cerevisiae at 400 uM at 4 degC by electrophoretic mobility shift assay. The class given is protein-complex assay. Conditions: tested as the 32P-labelled form.
The target is the same in assay [21]. As to the kind of experiment: Inhibition of Saccharomyces cerevisiae Pho80-Pho85-Pho81-MD catalyzed phosphorylation of Pho4 S176N distal-site mutant assessed as increase in substrate concentration. It is filed as protein-complex assay.
Assay [22] has the same target. Kind of assay: Binding affinity to Saccharomyces cerevisiae Pho80-Pho85-Pho81-MD complex at 400 uM after 30 mins at 30 degC by electrophoretic mobility shift assay. The class given is protein-complex assay.
Assay [23] shares this target. Kind of assay: Binding affinity to Saccharomyces cerevisiae Pho80-Pho85-Pho81-MD complex at 400 uM after 30 mins at 4 degC by electrophoretic mobility shift assay. The class given is protein-complex assay.
Assay [24] has the same target. Kind of assay: Binding affinity to Saccharomyces cerevisiae Pho80-Pho85-Pho81-MD complex at 0.2 uM after 30 mins by electrophoretic mobility shift assay in presence of 6 mM ZnSO4. The class given is protein-complex assay. The settings on record: tested as the 32P-labelled form.
The target is the same in assay [25]. Kind of assay: Inhibition of Saccharomyces cerevisiae Pho80-Pho85-Pho81-MD catalyzed phosphorylation of Pho4 F29I distal-site mutant assessed as increase in substrate concentration. The class given is protein-complex assay.
For assay [26] the target is unchanged. Kind of assay: Displacement of [32P]-labeled 4-inositol heptakisphosphate from Pho80-Pho85-Pho81-MD complex in Saccharomyces cerevisiae at 400 uM 30 mins at 4 degC by electrophoretic mobility shift assay. It is filed as protein-complex assay. The settings on record: tested as the 32P-labelled form.
For assay [27], the target named is T4, Phosphate system positive regulatory protein PHO81. Kind of assay: Inhibition of Saccharomyces cerevisiae Pho81-MD-dependent Pho80-Pho85 activity after 30 mins.
Assay [28] deals with T3, Pho80/Pho85 (Saccharomyces cerevisiae S288c). Kind of assay: Binding affinity of […]-labeled Pho81-MD to Saccharomyces cerevisiae Pho80-Pho85 by fluorescence binding assay relative to untreated control. It is filed as protein-complex assay.
For assay [29] the target is unchanged. Kind of assay: Inhibition of Saccharomyces cerevisiae Pho80-Pho85 at 50 uM in presence of > 10 uM Pho81-MD. It is filed as protein-complex assay.
The target of assay [30] is T1, Pho80/Pho85/Pho81 complex (Saccharomyces cerevisiae S288c). Kind of assay: Binding affinity to Saccharomyces cerevisiae Pho80-Pho85-Pho81-MD complex at 0.2 uM after 30 mins by electrophoretic mobility shift assay in presence of 6mM MgCl2. The class given is protein-complex assay. The settings on record: tested as the 32P-labelled form.
Assay [31] concerns the target T4, Phosphate system positive regulatory protein PHO81. Kind of assay: Inhibition of Saccharomyces cerevisiae Pho81-MD-MD dependent Pho80-Pho85 activity after 60 mins.

As usually defined, the IC50 is the point on the concentration scale where inhibition reaches its midpoint. Low values mean greater potency, high ones weaker potency. The Ki is the equilibrium dissociation constant of an inhibitor or competing ligand from its target.

T2 sequence (P17157 whole entry, one chain of several): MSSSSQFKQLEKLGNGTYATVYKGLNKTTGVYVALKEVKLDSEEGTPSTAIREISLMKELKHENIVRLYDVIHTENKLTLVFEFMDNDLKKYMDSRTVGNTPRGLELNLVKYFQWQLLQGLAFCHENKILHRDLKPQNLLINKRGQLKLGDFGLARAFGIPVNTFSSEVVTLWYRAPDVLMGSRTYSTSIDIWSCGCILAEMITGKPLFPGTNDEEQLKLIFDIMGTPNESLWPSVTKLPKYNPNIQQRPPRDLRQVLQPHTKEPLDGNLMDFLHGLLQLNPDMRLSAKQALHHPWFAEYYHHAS
T2 sequence (P20052 whole entry, one chain of several): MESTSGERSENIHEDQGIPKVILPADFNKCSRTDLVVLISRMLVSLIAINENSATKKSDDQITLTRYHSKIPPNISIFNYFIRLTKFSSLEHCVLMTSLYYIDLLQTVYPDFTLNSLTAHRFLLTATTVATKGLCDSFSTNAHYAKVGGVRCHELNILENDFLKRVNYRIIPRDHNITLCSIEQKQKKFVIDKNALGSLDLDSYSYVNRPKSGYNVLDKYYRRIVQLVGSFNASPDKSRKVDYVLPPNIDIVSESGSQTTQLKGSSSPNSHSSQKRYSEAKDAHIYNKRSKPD

Consider `O=P(O)(O)O[C@H]1[C@@H](OP(=O)(O)O)[C@@H](OP(=O)(O)O)[C@H](OP(=O)(O)OP(=O)(O)O)[C@@H](OP(=O)(O)O)[C@@H]1OP(=O)(O)O`, for which the outcome in [1], in assay [4], in assay [8], in assay [16], in [17] and in assay [19] was Active. Besides, the result in assay [24] and in assay [30] was Active. Besides, the result in [2], in assay [5], in [9], in [14], in [20] and in assay [22] was inactive. Moreover, the result in assay [23], in assay [26] and in assay [29] was inactive. Also, the Kd in [3] came out at 20.3 µM. In addition, the IC50 in [6] is 25 µM; in assay [10] it was 22 µM; in assay [18], 23 µM; in assay [27], 14 µM; in assay [31] it was 31 µM. For the same molecule, the Ki in [7] was found to be 19 µM. Besides, the inhibition result in assay [11], in assay [12], in [13], in [15], in assay [21] and in assay [25] was “Active” in each case. The same molecule had a fold change (FC) in assay [28] of 5.

Turning to `O=P(O)(O)O[C@H]1[C@@H](OP(=O)(O)O)[C@H](OP(=O)(O)O)[C@@H](OP(=O)(O)OP(=O)(O)O)[C@H](OP(=O)(O)O)[C@H]1OP(=O)(O)O`, in assay [28], the result was inactive.
